In PubChem BioAssay (NCI):
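A five-concentration, 48-hour dose response in 96-well plates underlies each endpoint, interpolated linearly between surrounding concentrations. Abbreviation: GI50, concentration required for 50% inhibition of growth. The concentration for full growth arrest is given as TGI.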

Assays:
Experiment in all cases: DTP human tumour cell line panel, 48 h
[1] = test system: OVCAR-8 ovarian
[2] = test system: OVCAR-5 ovarian
[3] = test system: T-47D breast
[4] = test system: RXF 393 renal
[5] = test system: MALME-3M melanoma
[6] = test system: HT29 colon
[7] = test system: SK-OV-3 ovarian
[8] = test system: COLO 205 colon
[9] = test system: UACC-257 melanoma
[10] = test system: SF-295 CNS

COC(=O)c1cc(C)ccc1CC(Cc1ccc(C)cc1)C(=O)OC (stereo unspecified)
TGI [1]: > 100 µM
TGI [2]: > 85.4 µM
TGI [3]: > 100 µM
TGI [4]: 11.5 µM
TGI [5]: 95.5 µM
TGI [6]: 80.4 µM
TGI [7]: 67.2 µM
TGI [8]: > 100 µM
TGI [9]: > 100 µM
TGI [10]: > 100 µM

COC(=O)C1=C(C)NC(C)=C([N+](=O)[O-])C1c1cccc(N=O)c1 (stereo unspecified)
TGI [1]: 32.1 µM
TGI [2]: 30.5 µM
TGI [3]: 37.3 µM
TGI [4]: 27.6 µM
TGI [5]: 25.2 µM
TGI [6]: 33.1 µM
TGI [7]: 46.6 µM
TGI [8]: 29 µM
TGI [9]: 25.1 µM
TGI [10]: 51.5 µM

c1ccc(C2=Nn3c(CCCCCCCCc4nnc5n4N=C(c4ccccc4)CS5)nnc3SC2)cc1
TGI [1]: > 100 µM
TGI [2]: > 100 µM
TGI [3]: > 100 µM
TGI [4]: 67.5 µM
TGI [5]: > 89.6 µM
TGI [6]: > 50.6 µM
TGI [7]: 85.6 µM
TGI [8]: > 100 µM
TGI [9]: > 100 µM
TGI [10]: 55.3 µM

COc1cc([C@@H]2c3cc4c(cc3[C@@H](c3c(O)cc(O)c5c3O[C@H](c3ccc(O)c(O)c3)[C@@H](O)C5)[C@H]3COC(=O)[C@H]23)OCO4)cc(OC)c1O
TGI [1]: > 100 µM
TGI [2]: > 100 µM
TGI [3]: > 100 µM
TGI [4]: > 100 µM
TGI [5]: > 100 µM
TGI [6]: > 100 µM
TGI [7]: > 100 µM
TGI [8]: > 100 µM
TGI [9]: > 100 µM
TGI [10]: > 100 µM

COc1ccc(N=Nc2c3c(c(O)c4ccccc24)CCC(C)(C)O3)cc1
TGI [1]: > 100 µM
TGI [2]: 43.3 µM
TGI [3]: 25.2 µM
TGI [4]: 34 µM
TGI [5]: 40.6 µM
TGI [6]: 27.6 µM
TGI [7]: > 100 µM
TGI [8]: 72.8 µM
TGI [9]: 37.5 µM
TGI [10]: 30.3 µM

Cc1c2ccncc2c(C)c2c1[nH]c1ccccc12
TGI [1]: 2.32 µM
TGI [2]: 4.23 µM
GI50 [3]: 0.173 µM
TGI [3]: 0.509 µM
TGI [4]: 0.595 µM
TGI [5]: 4.92 µM
TGI [6]: 3.88 µM
TGI [7]: 4.44 µM
TGI [8]: 1.83 µM
TGI [9]: 4.64 µM
TGI [10]: 2 µM

CCOC(=O)C(C)c1nc2c(Cl)c3ncccc3cc2[nH]c1=O (stereo unspecified)
TGI [1]: > 100 µM
TGI [2]: > 100 µM
TGI [3]: > 100 µM
TGI [4]: > 100 µM
TGI [5]: > 100 µM
TGI [6]: > 100 µM
TGI [7]: > 100 µM
TGI [8]: > 100 µM
TGI [9]: > 100 µM
TGI [10]: > 100 µM

O=C(O)c1ccc2c(c1)CC1(C2)Cc2cc3c(cc2C1=O)CCC3 (stereo unspecified)
TGI [1]: > 100 µM
TGI [2]: > 100 µM
TGI [3]: > 100 µM
TGI [4]: > 100 µM
TGI [5]: > 100 µM
TGI [6]: > 100 µM
TGI [7]: > 100 µM
TGI [8]: > 100 µM
TGI [9]: > 100 µM
TGI [10]: > 100 µM

OC1(c2ccc(Cl)cc2)c2ccc(CN3CCCC3)cc2C2=NCCN21 (stereo unspecified)
TGI [1]: 29.9 µM
TGI [2]: 31.9 µM
TGI [3]: 38.5 µM
TGI [4]: 21.2 µM
TGI [5]: 25.2 µM
TGI [6]: 26.7 µM
TGI [7]: 27.3 µM
TGI [8]: 22.7 µM
TGI [9]: 25.1 µM
TGI [10]: 29.5 µM

O=C(c1ccccc1)N1C(=S)N=C(Nc2ccccc2)C1=Nc1ccccc1
TGI [1]: > 100 µM
TGI [2]: > 100 µM
TGI [3]: > 100 µM
TGI [4]: > 100 µM
TGI [5]: > 100 µM
TGI [6]: > 100 µM
TGI [7]: > 100 µM
TGI [8]: > 100 µM
TGI [9]: > 100 µM
TGI [10]: > 100 µM

O=C1CS(=O)C23c4cc5ccccc5n4CCC2CCCN13 (stereo unspecified)
TGI [1]: > 100 µM
TGI [2]: > 100 µM
TGI [3]: > 100 µM
TGI [4]: > 100 µM
TGI [5]: > 100 µM
TGI [6]: > 100 µM
TGI [7]: > 100 µM
TGI [8]: > 100 µM
TGI [9]: > 100 µM
TGI [10]: > 100 µM

COc1ccc(N=C2C(=S)N(c3ccc(OC)cc3)/C(=N/S(=O)(=O)c3ccccc3)N2c2ccccc2)cc1
TGI [1]: 5.47 µM
TGI [2]: 32 µM
TGI [3]: 7.6 µM
TGI [4]: 16 µM
TGI [5]: 36.2 µM
TGI [6]: > 64.4 µM
TGI [7]: > 55.4 µM
TGI [8]: 24.8 µM
TGI [9]: 26.6 µM
TGI [10]: > 49.5 µM

COC(=O)[C@H](C)NC(=O)[C@H](CSC)N1C(=O)N[C@@H](C(C)C)C1=O
TGI [1]: > 100 µM
TGI [2]: > 100 µM
TGI [3]: > 100 µM
TGI [4]: > 100 µM
TGI [5]: > 100 µM
TGI [6]: > 100 µM
TGI [7]: > 100 µM
TGI [8]: > 100 µM
TGI [9]: > 100 µM
TGI [10]: > 100 µM
